Laboratory results as given in US20060084694A1, “Ligand-dependant activation of Nur77 and uses thereof” (priority 2004, published 2006).

Columns and labels:
[1] = target: T1, PPARγ (Homo sapiens, UniProt P37231); conditions: Qin, et al., 2004, Chintharlapalli; cited from earlier work
T1 sequence (P37231 1-505): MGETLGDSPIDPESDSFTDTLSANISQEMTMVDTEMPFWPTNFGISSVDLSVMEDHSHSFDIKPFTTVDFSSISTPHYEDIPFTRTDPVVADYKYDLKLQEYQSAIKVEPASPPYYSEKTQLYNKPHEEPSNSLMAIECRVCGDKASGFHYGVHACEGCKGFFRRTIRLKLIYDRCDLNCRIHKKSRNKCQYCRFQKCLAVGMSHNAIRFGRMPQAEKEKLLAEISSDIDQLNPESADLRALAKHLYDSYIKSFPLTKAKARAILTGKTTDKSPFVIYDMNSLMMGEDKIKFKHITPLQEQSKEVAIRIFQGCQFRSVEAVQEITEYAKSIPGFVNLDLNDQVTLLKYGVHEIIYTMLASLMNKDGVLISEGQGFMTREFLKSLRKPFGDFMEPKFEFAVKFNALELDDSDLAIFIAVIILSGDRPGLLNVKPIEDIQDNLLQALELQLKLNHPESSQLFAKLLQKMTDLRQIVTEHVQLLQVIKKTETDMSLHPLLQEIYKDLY

[2] = target: Nur77 (Homo sapiens, UniProt P22736); experiment: Nur77 subcellular localization and level (immunostaining, Western blot of cytosolic and nuclear extracts); conditions: for Nur77 translocation, Western blot of cytosolic and nuclear extracts: Panc-28, 10 or 20 μM, 12 hr (FIG. 4B); for Nur77 localization by immunostaining: Panc-28 cells, 10 μM, 6 hr (FIG. 4A)
Nur77, sequence (P22736 whole entry, the tested form may be a part): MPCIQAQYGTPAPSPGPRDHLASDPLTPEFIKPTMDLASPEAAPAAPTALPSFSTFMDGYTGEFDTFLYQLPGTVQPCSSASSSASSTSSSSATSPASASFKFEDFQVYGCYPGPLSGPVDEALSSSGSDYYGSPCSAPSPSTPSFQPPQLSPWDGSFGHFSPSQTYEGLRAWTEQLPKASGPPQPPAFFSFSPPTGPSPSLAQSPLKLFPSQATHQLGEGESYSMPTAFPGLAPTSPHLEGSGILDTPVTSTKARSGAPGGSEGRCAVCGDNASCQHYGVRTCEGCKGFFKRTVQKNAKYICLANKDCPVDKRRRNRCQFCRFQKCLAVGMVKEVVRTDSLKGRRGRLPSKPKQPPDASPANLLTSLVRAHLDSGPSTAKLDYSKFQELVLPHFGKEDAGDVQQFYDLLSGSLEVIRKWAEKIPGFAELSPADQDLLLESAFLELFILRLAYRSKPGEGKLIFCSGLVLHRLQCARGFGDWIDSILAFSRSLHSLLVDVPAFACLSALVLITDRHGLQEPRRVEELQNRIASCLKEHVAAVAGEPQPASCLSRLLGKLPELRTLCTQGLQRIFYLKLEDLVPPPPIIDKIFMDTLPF
Description: The different cancer cell lines were cultured under standardized conditions. Panc-28 cells were grown in DMEM:Ham's F-12 media containing 2.5% charcoal stripped fetal bovine serum, and cells were treated with DMSO and different concentrations of test compounds as indicated. […] For all other assays, cytosolic, nuclear fractions, or whole cell lysates were obtained at various time points, analyzed by Western blot analysis, and bands were quantitated as previously described (Qin, et al., 2004; Abdelrahim, et al., 2002). Immunocytochemical analysis was determined using Nur77 antibodies as previously reported (Abdelrahim, et al., 2002).
Sp1 is a nuclear protein and was used as a control to ensure efficient separation of the two extracts and Sp1 was identified only in the nuclear fraction.

[3] = target: T2, GAL4-Nur77 (full length) chimera (Homo sapiens, UniProt P22736); experiment: GAL4-Nur77 (full length)/pGAL4 luciferase transactivation in Panc-28 cells; type: cell-based; conditions: for luciferase activity, GAL4-Nur77 (full length)/pGAL4: Panc-28 cells, 10 or 20 μM (FIG. 1B); for Nur77 activation, structure dependence (isomers and ring-substituted analogs): FIG. 1D, analogs data not shown
T2 construct: Panc-28 cells transfected with a GAL4-Nur77 (full length) chimera; expressed in transfected cells; host or cells: Panc-28
T2 sequence (P22736 whole entry, change not shown, the tested form may be a part): as the sequence (P22736 whole entry, the tested form may be a part) above
Description: Structure-dependent activation of Nur77 by a series of eleven C-substituted DIMs was investigated in Panc-28 cells transfected with a GAL4-Nur77 (full length) chimera and a reporter construct containing five GAL4 response elements linked to a luciferase reporter gene (pGAL4).
(§1) Transfection assays were essentially carried out as previously described using Lipofectamine Plus reagent (Invitrogen, Carlsbad, Calif.) and luciferase activities were normalized to β-galactosidase activity. […] Results are expressed as means±SE for at least three replicate determinations for each treatment group.

[4] = target: VP-Nur77 (ligand binding domain) / GAL4-coactivator chimeras (Homo sapiens, UniProt P22736); conditions: Panc-28, VP-Nur77
VP-Nur77 (ligand binding domain) / GAL4-coactivator chimeras, sequence (P22736 360-595 limits assumed, change not shown): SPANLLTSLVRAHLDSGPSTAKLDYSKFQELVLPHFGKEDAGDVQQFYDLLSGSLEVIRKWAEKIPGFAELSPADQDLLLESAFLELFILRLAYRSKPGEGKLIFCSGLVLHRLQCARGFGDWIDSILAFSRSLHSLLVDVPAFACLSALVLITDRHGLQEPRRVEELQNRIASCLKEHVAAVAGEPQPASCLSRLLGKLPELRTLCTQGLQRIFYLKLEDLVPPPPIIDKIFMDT
Description: Panc-28 cells were plated in 12-well plates at 1×10^5 cells/well in DME-F12 media supplemented with 2.5% charcoal-stripped FBS. After growth for 16 hr, various amounts of DNA, i.e. Gal4Luc (0.4 μg), β-gal (0.04 μg), VP-Nur77(E/F) (0.04 μg), pM SRC1 (0.04 μg), pMSRC2 (0.04 μg), pMSRC3 (0.04 μg), pMDRIP205 (0.04 μg) and pMCARM-1 (0.04 μg) were transfected by Lipofectamine (Invitrogen) according to the manufacturer's protocol. After 5 hr of transfection, the transfection mix was replaced with complete media containing either vehicle (DMSO) or the indicated ligand for 20-22 hr. Cells were then lysed with 100 ml of 1X reporter lysis buffer, and 30 μl of cell extract were used for luciferase and β-Gal assays. Lumicount was used to quantitate luciferase and β-Gal activities, and the luciferase activities were normalized to β-Gal activity.
Ligand-induced Nur77-coactivator interactions were determined using a construct (pGAL4) containing 5 GAL4 response elements. Coactivators used in this study include SRC-1, SRC-2 (TIFII), SRC-3 (AIB1), PGC-1, TRAP220 and CARM-1. A GAL4-repressor (SMRT) chimera was also included in the assay.

[5] = target: T3, GAL4-Nur77(E/F) (Homo sapiens, UniProt P22736); experiment: GAL4-Nur77(E/F)/pGAL4 transactivation in Panc-28 cells; type: cell-based; conditions: 5-15 μM (FIG. 2A)
T3 construct: a chimeric GAL4-Nur77(E/F) construct containing only the E/F domain of Nur77; expressed in transfected cells; host or cells: Panc-28
T3 sequence (P22736 360-595 limits assumed): as the sequence (P22736 360-595 limits assumed, change not shown) above
Description: as §1
(§2) (FIG. 2A). […] The structural specificity of Nur77 antagonists was further investigated using meta-hydroxy (DIM-C-mPhOH) and ortho-hydroxy (DIM-C-oPhOH) analogs. […] Thus, activation of Nur77 by C-DIMs was E/F domain-dependent and Nur77 activation was inhibited by DIM-C-pPhOH; moreover, both activation and inhibition of Nur77-mediated transactivation was dependent on the structure of the C-DIM compounds.

[6] = system: Panc-28 cells; experiment: Annexin V-Alexa-488 / propidium iodide apoptosis assay in Panc-28 cells; type: cell-based; conditions: Panc-28, 10 and 20 μM, 8 and 12 hr (FIG. 5C)
Description: Detection of phosphatidylserine on the outside of the cell membrane, a unique and early marker for apoptosis, was performed using a commercial kit (Vybrant Apoptosis Assay Kit #2; Molecular Probes, Eugene, Oreg.). […] Binding of annexin V-Alexa-488 conjugate and propidium iodide (PI) was performed according to the manufacturer's instructions. After binding and washing, cells were observed under phase contrast and epifluorescent illumination using a 495-nm excitation filter and a 520-nm absorption filter for annexin V-Alexa 488 and a 546-nm excitation filter and a 590-nm absorption filter for PI. Healthy cells were unstained by either dye; cells in early stages of apoptosis were stained only by annexin V, while dead cells were stained by annexin V and PI. The assay was repeated on three separate Panc-28 cell preparations.

[7] = system: PARP cleavage; experiment: PARP cleavage in Panc-28 cells (Western blot); type: cell-based; conditions: for effect of leptomycin B on PARP cleavage induced by Nur77 agonists: Panc-28, LMB 1 ng/ml cotreatment (FIG. 5E)
Description: The different cancer cell lines were cultured under standardized conditions. Panc-28 cells were grown in DMEM:Ham's F-12 media containing 2.5% charcoal stripped fetal bovine serum, and cells were treated with DMSO and different concentrations of test compounds as indicated. For longer term cell survival studies, the media was changed every second day, and values were presented for a 4 day experiment. For all other assays, cytosolic, nuclear fractions, or whole cell lysates were obtained at various time points, analyzed by Western blot analysis, and bands were quantitated as previously described (Qin, et al., 2004; Abdelrahim, et al., 2002). Immunocytochemical analysis was determined using Nur77 antibodies as previously reported (Abdelrahim, et al., 2002).

[8] = target: T4, GAL4-Nur77 (Homo sapiens, UniProt P22736); experiment: Nur77 antagonist assay: cotreatment with Nur77 agonists, GAL4-Nur77/pGAL4 in Panc-28 cells; type: cell-based; conditions: for Nur77 antagonist activity (inhibition of agonist-induced transactivation): Panc-28, cotreatment with Nur77 agonists, 10 or 20 μM (FIG. 2C-2E)
T4 construct: expressed in transfected cells; host or cells: Panc-28
T4 sequence (P22736 whole entry, the tested form may be a part): as the sequence (P22736 whole entry, the tested form may be a part) above
Description: as §1, §2

[9] = system: TRAIL mRNA; experiment: TRAIL mRNA in Panc-28 cells (RT-PCR); type: cell-based; conditions: Panc-28 cells (FIG. 6B)
Description: cDNA was prepared from the Panc-28 cell line using a combination of oligodeoxythymidylic acid (Oligo d(T)16), and dNTP mix (Applied Biosystems) and Superscript II (Invitrogen). Each PCR was carried out in triplicate in a 20-μl volume using Sybr Green Mastermix (Applied Biosystems) for 15 min at 95° C. for initial denaturing, followed by 40 cycles of 95° C. for 30 s and 60° C. for 1 min in the ABI Prism 7700 Sequence Detection System. The ABI Dissociation Curves software was used following a brief thermal protocol (95° C. 15 s and 60° C. 20 s, followed by a slow ramp to 95° C.) to control for multiple species in each PCR amplification. Values for each gene were normalized to expression levels of TBP. The sequences of the primers used for RT-PCR were as follows: TRAIL forward, 5′-CGTGTACTTTACCAACGAGCTGA-3′, reverse, 5′-ACGGAGTTGCCACTTGACTTG-3′; and TBP forward, 5′-TGCACAGGAGCCAAGAGTGAA-3′, reverse, 5′-CACATCACAGCTCCCCACCA-3′.

SMILES: FC(F)(F)c1ccc(C(c2c[nH]c3ccccc23)c2c[nH]c3ccccc23)cc1 [DIM-C-pPhCF3]
- PPARγ activation [1]: also activates PPARγ
- Nur77 translocation, Western blot of cytosolic and nuclear extracts [2]: translocation from the nucleus is not observed
- Nur77 localization by immunostaining [2]: Nur77 remained in the nucleus
- luciferase activity, GAL4-Nur77 (full length)/pGAL4 [3]: activated luciferase activity
- transactivation with GAL4-CARM-1 [4]: slightly activated
- luciferase activity, GAL4-Nur77(E/F)/pGAL4 [5]: induced luciferase activity

SMILES: CC[C@@]1(O)C(=O)OCc2c1cc1n(c2=O)Cc2cc3ccccc3nc2-1 [camptothecin, reference compound]
- annexin V-stained cells [6]: comparable

SMILES: CCC(=C/[C@H](C)C/C=C/C(C)=C/[C@@H](C)C(=O)[C@@H](C)[C@H](O)[C@@H](C)C/C(C)=C/C(=O)O)/C=C/[C@@H]1OC(=O)C=C[C@@H]1C [leptomycin B, Leptomycin B]
- PARP cleavage, LMB alone ([7]; Panc-28, 1 ng/ml (FIG. 5E)): slightly induced PARP cleavage
- effect of leptomycin B on PARP cleavage induced by Nur77 agonists [7]: not affected
- effect of leptomycin B on PARP cleavage induced by Nur77 agonists ([7]; listed as LMB): enhanced PARP cleavage

SMILES: COc1ccccc1C(c1c[nH]c2ccccc12)c1c[nH]c2ccccc12 [DIM-C-oPhOCH3]
- Nur77 activation, structure dependence (isomers and ring-substituted analogs) [3]: Only the para-substituted compound was active

SMILES: COc1cccc(C(c2c[nH]c3ccccc23)c2c[nH]c3ccccc23)c1 [DIM-C-mPhOCH3]
- Nur77 activation, structure dependence (isomers and ring-substituted analogs) [3]: Only the para-substituted compound was active

SMILES: Oc1cccc(C(c2c[nH]c3ccccc23)c2c[nH]c3ccccc23)c1 [DIM-C-mPhOH]
- Nur77 antagonist activity (inhibition of agonist-induced transactivation) [8]: did not inhibit

SMILES: Oc1ccccc1C(c1c[nH]c2ccccc12)c1c[nH]c2ccccc12 [DIM-C-oPhOH]
- Nur77 antagonist activity (inhibition of agonist-induced transactivation) [8]: did not exhibit Nur77 antagonist activity
- toxicity in cotreated cells ([8]; high doses (20 μM) of both Nur77 agonists and DIM-C-oPhOH): toxic

SMILES: c1ccc(C(c2c[nH]c3ccccc23)c2c[nH]c3ccccc23)cc1 [DIM-C-Ph]
- PPARγ activation [1]: PPARγ-inactive
- Nur77 translocation, Western blot of cytosolic and nuclear extracts [2]: translocation from the nucleus is not observed
- Nur77 localization by immunostaining [2]: Nur77 remained in the nucleus
- TRAIL mRNA levels [9]: induced TRAIL mRNA levels
- luciferase activity, GAL4-Nur77 (full length)/pGAL4 [3]: activated luciferase activity
- luciferase activity, GAL4-Nur77(E/F)/pGAL4 [5]: induced luciferase activity
